The values below come from patent US20230100429A1, “LIVE-PATHOGEN-MIMETIC NANOPARTICLES BASED ON PATHOGEN CELL WALL SKELETON, AND PRODUCTION METHOD THEREOF” (priority 2020, published 2023).

The series can be described thus: Toxicity evaluation, plasma AST and ALT after subcutaneous injection. In kind it is in vivo, C57BL/6 mouse. The following applies: 25 μg resiquimod, over time, FIG. 6. The method, then: To evaluate the toxicity of a live pathogen-mimetic nano-molecule, a live pathogen-mimetic nano-molecule, a CWS-nanodispersion, resiquimod (R848; free drug), or a mixture of a CWS-nanodispersion and resiquimod (R848; free drug), which was added to a 50 μL of phosphate buffered saline (PBS) to have a resiquimod concentration of 25 μg, was subcutaneously injected into the right flank of a C57BL/6 mouse. Then, blood was extracted from the mouse at fixed time intervals and centrifuged at 12,000 rpm to isolate plasma. Then, the concentrations of aspartate transaminase (AST) and alanine transaminase (ALT) contained in the isolated plasma were measured using ELISA.

With `CCOCc1nc2c(N)nc3ccccc3c2n1CC(C)(C)O` [resiquimod], the “plasma ALT concentration (hepatotoxicity indicator)” value is recorded as “initially increased” and the “plasma AST concentration (hepatotoxicity indicator)” value is on record as “initially increased”.
